Patent publication US20250121013A1, “USE OF BACILLUS AMYLOLIQUEFACIENS FOR PREVENTING AND TREATING PARKINSON'S DISEASE” (Artugen Therapeutics Ltd., priority 2021, published 2025)

Experiments:
MPTP-induced model of PD [1] = test: MPTP-induced mouse model of PD, striatal dopamine and DOPAC (Example 1); format: in vivo
Experimental: • Route(s) of administration: IP for MPTP (1-Methyl-4-phenyl-1,2,3,6-tetrahydropyridine hydrochloride) and vehicle, PO for ART24 and vehicle (trehalose) • Dose Volume(s): 10 mL/kg for MPTP, 0.1 mL for ART24 • Formulation(s): PBS for MPTP; saline-based formulation for ART24 • Dose Levels: 20 mg/kg for MPTP, for ART24 • Dose Frequency: 4 doses (QD) for MPTP; 11 days BID for ART24 • Study duration: 11 days • Number of Groups: 4 • Number of animals per group: 13 • Total number of animals: 52 (57 animals were enrolled in the study)
MPTP model. MPTP was formulated in phosphate buffered saline (PBS) and administered to mice QD for 4 days at a dose of 20 mg/kg (2 mg/mL delivered as 10 mL/kg).
Neurotransmitter measurements (DA and DOPAC). 10 mice from each were anesthetized and blood collected into K2EDTA tubes by a cardiac puncture. Brains were extracted and dissected. The rostral part was dissected and striata removed. The striata were frozen and subsequently evaluated for levels of dopamine and metabolites.
Striata were homogenized in 0.3M perchloric acid. The resulting supernatant was analyzed for levels of monoamines by reverse phase HPLC-ECD.
Data analysis. Data were analyzed using a two-way repeated measures ANOVA with a post hoc Fisher's LSD multiple comparison test. The raw data were also analyzed for outliers using ROUT method (Q=1%). GraphPad Prism 9 was used for data analysis and presentation.

MPTP-induced model of PD [2] = test: Locomotion activity in MPTP zebrafish model (Example 6); format: in vivo; settings: larvae; MPTP 250 μM 96 to 120 hpf; ART24 4×10^6 CFU/mL in water of MPTP-exposed fish; 50 min alternating dark/light
Experimental: Zebrafish larvae were dosed with MPTP (250 μM; 96 to 120 hours post fertilization) or sham treated (DMSO only; n=22) in water. ART24 was dosed in water of MPTP-exposed fish (4×10^6 CFU/mL; n=16). Movement was evaluated with an imaging system during 50 min of testing consisting of 10-min periods of alternating darkness/bright light. Data was analyzed by one-way ANOVA followed by a Dunnet test comparing against MPTP treatment.

[3] = MPTP 20 mg/kg IP QD 4 days compared to saline/vehicle treated animals
[4] = compared to saline/MPTP dosed animals, PO BID Day -3 to Day 7, MPTP 20 mg/kg IP QD 4 days, n=10/group

Compound | DOPAC content in the striatum (MPTP-induced model of PD [1]; [3]) | dopamine content in the striatum (MPTP-induced model of PD [1]; [3]) | total motor movement distance (MPTP-induced model of PD [2]) | DOPAC concentration in the striatum (MPTP-induced model of PD [1]; [4]) | dopamine concentration in the striatum (MPTP-induced model of PD [1]; [4])
CN1CC=C(c2ccccc2)CC1.Cl [MPTP, 1-Methyl-4-phenyl-1,2,3,6-tetrahydropyridine hydrochloride] | significant depletion | significant depletion | 24 % of sham |  | 
OC[C@H]1O[C@H](O[C@H]2O[C@H](CO)[C@@H](O)[C@H](O)[C@H]2O)[C@H](O)[C@@H](O)[C@@H]1O [trehalose] |  |  |  | did not produce a significant effect | did not produce a significant effect
